Non-standard residues stand in square brackets, D forms with d. No end group written: not given here. Cit = NC(=O)NCCC[C@H](N)C(=O)O
Legend:
DNA = DNA clearance (Quant-IT PicoGreen) in IgG1 purification from CHO supernatant; parameters: species or system Chinese Hamster Ovary (CHO); settings: washing buffer PBS, pH 7.4; elution 0.1 M Na-acetate pH 4.5; TREN-WB adsorbent
Experimental: (§1) Further, the chromatographic fractions were analyzed using a HCP ELISA kit and a Quant-IT Picogreen dsDNA assay kit to determine the levels of host cell proteins (HCPs) and DNA, respectively.
The chromatographic fractions were first diafiltered against 10 mM Tris–HCl pH 7.5, using Amicon® centrifugal filters (3000 MWCO Millipore, Bedford, MA, USA). The DNA content in the fractions was determined by pico green assay using Quant-IT Picogreen dsDNA assay kit from Thermo Fisher Scientific (Philadelphia, PA, USA). Quantification was done as per the manufacturer’s protocol.

[1] = test system: CHO host cell proteins (HCPs); assay: Host cell protein clearance (HCP ELISA) in IgG1 purification from CHO supernatant; parameters: species or system Chinese Hamster Ovary (CHO); settings: for HCP LRV: elution 0.1 M Na-acetate pH 4.5, TREN-WB adsorbent
Experimental: as §1
(§2) In this work, we have investigated the effect of pH of the elution buffer on the performance of HWRGWV-TREN-WB resin with a therapeutic monoclonal IgG1. Specifically, 0.1 M acetate buffer was used as a milder elution buffer (pH 4–5), while 0.1 M glycine HCl buffer was used for low pH elution (pH 2.5). The performance of the different buffers was evaluated in terms of HCP LRV in the eluted fraction, whose values are reported in Figure 5. The HCP clearance decreases at lower elution pH, which is however needed to ensure sufficient IgG yield. At pH 5, where a HCP LRV of 1.18 is obtained, only 75% of the bound IgG is eluted. […] Therefore, acetate buffer pH 4.5 was selected as elution buffer, as it offers the best combination of yield and purity.
The majority of CHO HCPs are acidic in nature and have an overall negative charge at the physiological conditions (PBS pH 7.4). Their non-specific binding to the positively charged ligand (the net charge of HWRGWV at pH 7 is +1.1) is likely of electrostatic nature. In order to lower the non-specific capture of HCPs, pre-elution wash conditions were optimized by exploring different compositions and pH values of the washing buffer. Specifically, the following conditions were utilized, 0.2 M sodium phosphate pH 6, 0.2 M sodium phosphate pH 7, PBS pH 7.4, 1 M NaCl in PBS at pH 7.4, and 0.1 M Tris HCl pH 9.
The host cell protein contents of the chromatographic fractions were determined using HCP ELISA kits from Cygnus Technologies (Southport, NC, USA). The high sensitivity protocol described by the manufacturer was used in the analysis. Briefly, the anti-CHO-coated microtiter wells were filled with 100 μL of standards and samples, and incubated on a rotator at 200 rpm for 1 h at room temperature. The wells were then washed three times with 300 μL washing buffer, and 100 μL of HRP-labeled anti-CHO antibody was added to each of the wells. After rinsing the wells, 100 μL of 3,3′,5,5′ tetramethyl benzidine (TMB) substrate solution was added to each well for 30 min at room temperature. The reaction was terminated by adding 100 μL of 0.5 M sulphuric acid. The amount of hydrolyzed substrate was measured by μQuant Microplate reader (BioTek Inc., Winooski, VT, USA) at 450 nm. A 4-parameter logistic fit was used to calculate the HCP (ng/mL) content in the chromatographic fractions. The HCP values determined in terms of ng/mL were converted into ng/mg of MAb to account for the dilution of fractions. The log reduction value (LRV) was determined as the log10 of the ratio of HCP in the load to the HCP in the elution fractions.

human polyclonal IgG = assay: Batch adsorption isotherm (Langmuir fit); format: binding; settings: peptide-TREN-WB resin, 0.1-12 mg/mL IgG in PBS pH 7.4, 2 h, room temperature, UV 280 nm
Experimental: The IgG-binding affinity of the ligand variants was initially measured via batch adsorption studies. Briefly, aliquots of peptide-TREN-WB resin were incubated with solutions of IgG in PBS in a range of concentration between 0.1 and 12 mg/mL; as the binding equilibrium was reached, the amount of IgG adsorbed on each resin aliquot was calculated based on the equilibrium concentration of IgG in solution, and the corresponding values were fitted to the Langmuir model: q=QmaxC/KD+C where in KD is the dissociation constant and Qmax the equilibrium binding capacity.
The adsorption of human polyclonal IgG by the HWRGWV-WB resins was measured at room temperature in a set of batch adsorption experiments. The resin was equilibrated with PBS, pH 7.4, and transferred into fritted tubes (50 µL of resin slurry per tube). Lyophilized IgG was dissolved in PBS, pH 7.4, at different concentrations ranging from 0.1 to 12 mg/mL. A volume of 1 mL of IgG solution was incubated with each of the resin aliquots for two hours, at room temperature, and under mild agitation. The supernatants were collected and quantified by UV-absorbance at 280 nm to determine the amount of IgG adsorbed by the resin and the corresponding equilibrium concentration of unbound IgG in solution, and the resulting data were fitted to a Langmuir isotherm.

IgG = settings: preliminary studies; cited from earlier work
Excerpt: In this work the peptide and peptide variants have been conjugated to Workbeads base resin at varying ligand densities ...

Fc region of IgG = settings: cited from earlier work
Excerpt: Several chromatographic and non-chromatographic techniques have been proposed for the purification of Mabs, fc fusion proteins and bispecifics including efforts towards identifying alternatives to Protein A-based chromatography. While being regarded as the standard for antibody purification owing to their high affinity and selectivity, these ligands present limitations, including high cost and the potential release of immunogenic fragments. An additional issue with Protein A concerns the presence of antibody aggregates in eluted fraction and their poor selectivity ...

[2] = test system: polyclonal human IgG (monomer and aggregates); assay: Aggregate removal from heat-treated polyclonal IgG, SEC; settings: 1 mg/mL IgG incubated 60 °C 10 min; PBS wash; elution pH 4.5; SEC (TSKgel G3000SW)
Experimental: The ability of HWRGWVC-TREN-WB to remove aggregates was further tested by using a polyclonal IgG solution. The formation of aggregates was induced by incubating a 1 mg/mL IgG solution at 60 °C for 10 min. The IgG solution containing aggregates was loaded onto the HWRGWVC-TREN-WB resin, followed by washing with PBS and elution at pH 4.5.
Further, a feed sample containing monomeric and aggregated polyclonal IgG was produced by incubating a 1 mg/mL solution of human IgG at 60 °C for 10 min. The solution was loaded onto the HWRGWVC-TREN-WB resin, followed by washing with PBS and elution at pH 4.5. The collected fractions were analyzed by size exclusion chromatography (SEC) using a TSKgel G3000SW column to determine the ratio of monomeric vs. aggregated IgG in both flow-through and elution fractions.

[3] = test system: therapeutic monoclonal IgG1; assay: Purification of monoclonal IgG1 from CHO cell culture supernatant: yield, loss and purity; settings: SDS-PAGE
Experimental: To evaluate the effect of the spacer arm on the purity of the eluted product, the HWRGWV-WB adsorbents constructed with different spacer arms were utilized to purify a monoclonal IgG1 from a CHO cell culture supernatant. […] The collected fractions were analyzed by size exclusion chromatography to measure product yield (Table 2), and by SDS-PAGE to determine the overall product purity by densitometric analysis (Figure 4).
as §1, §2

Q: For “Ac-HWRGWV [N-terminally acetylated variant of HWRGWV, tested as TREN-WB resin]”, which “DNA LRV” value (DNA) is on record?
A: ~4

Q: And the “HCP LRV” value ([1]; washing buffer PBS, pH 7.4)?
A: 1.38

Q: And the “Qmax (equilibrium binding capacity)” value (human polyclonal IgG)?
A: 72 mg·IgG/mL Adsorbent

Q: Which results are given for “HWRGWV [tested as TREN-WB resin, coupled as HWRGWVC]”?
A: DNA LRV (DNA): ~4; HCP LRV ([1]; washing buffer 0.1 M Tris HCl, pH 9): 1.39; HCP removal during washing ([1]; washing buffer 0.2 M sodium phosphate at either pH 6 or 7): did not afford any HCP removal during washing; HCP LRV ([1]; washing buffer 1 M NaCl in PBS, pH 7.4): 1.22; HCP LRV ([1]; washing buffer PBS, pH 7.4): 1.04; IgG binding capacity on agarose WorkBeads ACT (IgG): higher IgG binding capacity as compared to polymethcarylate base resin; binding region on IgG (Fc region of IgG): binds the Fc region of IgG; Qmax (equilibrium binding capacity) (human polyclonal IgG): 85 mg·IgG/mL Adsorbent; selective capture of monomeric IgG vs aggregates [2]: bind only monomeric IgG

Q: Which “loss of IgG in washing buffer” value ([3]; wash 0.1 M Tris HCl, pH 9) does the source give for “HWRGWVC [peptide HWRGWV with C-terminal cysteine, conjugated through its thiol group to iodoacetyl-WB resin]” here?
A: not observed

Q: And the “loss of IgG in washing buffer” value ([3]; wash 1 M NaCl in PBS pH 7.4)?
A: minor loss of IgG in the washing buffer

Q: Which “DNA LRV” value (DNA) does the source give for HW[Cit]GWV here?
A: ~4

Q: And the “HCP LRV” value ([1]; washing buffer PBS, pH 7.4)?
A: 1.58

Q: What about the “Qmax (equilibrium binding capacity)” value (human polyclonal IgG) of the same substance?
A: 49 mg·IgG/mL Adsorbent

Reference: article PMC6337475, “Optimization of Sequence, Display, and Mode of Operation of IgG-Binding Peptide Ligands to Develop Robust, High-Capacity Affinity Adsorbents That Afford High IgG Product Quality” (International Journal of Molecular Sciences, 2019)
